Assay results reported in PubChem BioAssay AID248 (DTP/NCI, 2004).
Several values for one entry are separate records, joined by “and”; a condition that tells them apart may be missing. Identical values can stand only once. Toxic doses and inconclusive results are not listed. Rule as the data show it: active = T/C of 150% or more; inactive = T/C below 125%.

Tested on: L1210 leukemia ip in BDF1 mice, survival T/C
Experiment: NCI In Vivo Anticancer Drug Screen. Data for tumor model L1210 Leukemia (intraperitoneal) in B6D2F1 (BDF1) mice
Conditions: endpoint: mean survival time, higher = longer survival
Summary of the method: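 Ratio derived from survival: compound-dosed mice over vehicle-dosed mice, all bearing a transplantable tumor.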

[1] = dose: 100.0 mg/kg/injection, schedule: Q04DX003 (ip), vehicle: saline
[2] = dose: 200.0 mg/kg/injection, schedule: Q04DX003 (ip), vehicle: saline
[3] = dose: 400.0 mg/kg/injection, schedule: Q04DX003 (ip), vehicle: saline
[4] = dose: 100.0 mg/kg/injection, schedule: Q04DX003 (ip), vehicle: saline with Tween-80
[5] = dose: 200.0 mg/kg/injection, schedule: Q04DX003 (ip), vehicle: saline with Tween-80
[6] = dose: 400.0 mg/kg/injection, schedule: Q04DX003 (ip), vehicle: saline with Tween-80
[7] = dose: 100.0 mg/kg/injection, schedule: Q01DX009 (ip), vehicle: Klucel (hydroxypropylcellulose) (HPC)
[8] = dose: 200.0 mg/kg/injection, schedule: Q01DX009 (ip), vehicle: Klucel (hydroxypropylcellulose) (HPC)
[9] = dose: 100.0 mg/kg/injection, schedule: Q04DX003 (ip), vehicle: Klucel (hydroxypropylcellulose) (HPC)
[10] = dose: 200.0 mg/kg/injection, schedule: Q04DX003 (ip), vehicle: Klucel (hydroxypropylcellulose) (HPC)
[11] = dose: 400.0 mg/kg/injection, schedule: Q01DX009 (ip), vehicle: Klucel (hydroxypropylcellulose) (HPC)
[12] = dose: 400.0 mg/kg/injection, schedule: Q04DX003 (ip), vehicle: Klucel (hydroxypropylcellulose) (HPC)
[13] = dose: 100.0 mg/kg/injection, schedule: Q01DX001 (ip), vehicle: saline
[14] = dose: 200.0 mg/kg/injection, schedule: Q01DX001 (ip), vehicle: saline
[15] = dose: 400.0 mg/kg/injection, schedule: Q01DX001 (ip), vehicle: saline
[16] = dose: 100.0 mg/kg/injection, schedule: Q01DX001 (ip), vehicle: carboxymethylcellulose (CMC)
[17] = dose: 200.0 mg/kg/injection, schedule: Q01DX001 (ip), vehicle: carboxymethylcellulose (CMC)
[18] = dose: 400.0 mg/kg/injection, schedule: Q01DX001 (ip), vehicle: carboxymethylcellulose (CMC)
[19] = dose: 100.0 mg/kg/injection, schedule: Q01DX001 (ip), vehicle: Klucel (hydroxypropylcellulose) (HPC)
[20] = dose: 200.0 mg/kg/injection, schedule: Q01DX001 (ip), vehicle: Klucel (hydroxypropylcellulose) (HPC)
[21] = dose: 50.0 mg/kg/injection, schedule: Q01DX001 (ip), vehicle: saline
[22] = dose: 100.0 mg/kg/injection, schedule: Q04DX002 (ip), vehicle: saline with Tween-80
[23] = dose: 200.0 mg/kg/injection, schedule: Q04DX002 (ip), vehicle: saline with Tween-80
[24] = dose: 400.0 mg/kg/injection, schedule: Q04DX002 (ip), vehicle: saline with Tween-80

Measured: T/C

CC1=C/C(=N/NC(N)=O)CC(C)C1 (stereo unspecified)
inactive: [1] 100 % of control | [2] 98 % of control | [3] 97 % of control

C=C(C=O)C1CCC2=C(CCC3(C)C(C(C)CCCC(C)C)CCC23C)C1(C)CCC#N (stereo unspecified)
inactive: [4] 93 % of control | [5] 96 % of control | [6] 93 % of control

CCOC(=O)c1cnc2c(ccc3cc(OC)ccc32)c1NCCCN(CC)CC
inactive: dose: 50.0 mg/kg/injection, schedule: Q01DX009 (ip), vehicle: Klucel (hydroxypropylcellulose) (HPC) 105 % of control | [7] 108 % of control | [8] 94 % of control

Clc1ccc(Cl)nc1
inactive: [7] 103 % of control | [9] 98 % of control | [8] 93 % of control | [10] 98 % of control | [11] 103 % of control | [12] 88 % of control

COc1ccc(-c2sc(/N=C/c3cc(Br)cc(Br)c3O)c(C#N)c2C)cc1OC
inactive: dose: 100.0 mg/kg/injection, schedule: Q01DX001 (ip), vehicle: saline with Tween-80 89 % of control | [4] 93 % of control | dose: 200.0 mg/kg/injection, schedule: Q01DX001 (ip), vehicle: saline with Tween-80 91 % of control | [5] 98 % of control and 90 % of control | [6] 90 % of control

O=C(NC1CCCC2CCCCC21)OCCC1CCCCC1 (stereo unspecified)
inactive: [13] 95 % of control | [14] 103 % of control | [15] 95 % of control

Cc1cc(C)c(O)c(CN(C)Cc2c(C)[nH]c(=O)[nH]c2=O)c1
inactive: [16] 98 % of control | [17] 91 % of control | [18] 91 % of control

COC(=O)c1ccc([N+](=O)[O-])c(O)c1
inactive: [7] 96 % of control | [9] 96 % of control | [8] 98 % of control | [10] 100 % of control | [11] 88 % of control | [12] 102 % of control

O=C(COc1ccc(Cl)c(Cl)c1)Nc1ccc[n+](Cc2cccc(S(=O)(=O)F)c2)c1
inactive: [19] 96 % of control | [20] 97 % of control

O=C1CC(OC(=O)c2ccccc2)(c2ccccc2)OC(c2ccccc2)=C1c1ccccc1 (stereo unspecified)
inactive: [13] 101 % of control | [9] 97 % of control | [14] 104 % of control | [10] 100 % of control | [15] 96 % of control | [12] 100 % of control

O=C1OC(=O)c2c(O)cccc21
inactive: dose: 12.5 mg/kg/injection, schedule: Q01DX001 (ip), vehicle: saline 101 % of control | dose: 25.0 mg/kg/injection, schedule: Q01DX001 (ip), vehicle: saline 105 % of control | dose: 25.0 mg/kg/injection, schedule: Q01DX009 (ip), vehicle: saline with Tween-80 98 % of control | [21] 103 % of control | dose: 50.0 mg/kg/injection, schedule: Q01DX009 (ip), vehicle: saline with Tween-80 104 % of control | dose: 100.0 mg/kg/injection, schedule: Q01DX009 (ip), vehicle: saline with Tween-80 98 % of control | dose: 150.0 mg/kg/injection, schedule: Q01DX009 (ip), vehicle: saline with Tween-80 118 % of control

CC(=O)c1ccc(N=C(N)N=C(N)N)cc1
inactive: dose: 75.0 mg/kg/injection, schedule: Q01DX001 (ip), vehicle: carboxymethylcellulose (CMC) 110 % of control | dose: 150.0 mg/kg/injection, schedule: Q01DX001 (ip), vehicle: carboxymethylcellulose (CMC) 93 % of control

O=C(Cn1ccc(=O)[nH]c1=O)N1CCC2(CC1)SSC1(CCN(C(=O)Cn3ccc(=O)[nH]c3=O)CC1)S2
inactive: dose: 100.0 mg/kg/injection, schedule: Q01DX009 (ip), vehicle: saline 106 % of control | [1] 97 % of control | dose: 200.0 mg/kg/injection, schedule: Q01DX009 (ip), vehicle: saline 98 % of control | [2] 95 % of control | dose: 400.0 mg/kg/injection, schedule: Q01DX009 (ip), vehicle: saline 93 % of control | [3] 92 % of control

O=C(O)C1OC(Oc2ccc3oc4ccccc4c(=O)c3c2)C(O)C(O)C1O (stereo unspecified)
inactive: [7] 91 % of control | [8] 97 % of control | [11] 111 % of control

CNc1cc(N)ncn1
inactive: dose: 25.0 mg/kg/injection, schedule: Q01DX Z (ip), vehicle: saline 90 % of control | dose: 75.0 mg/kg/injection, schedule: Q01DX Z (ip), vehicle: saline 93 % of control

Cc1ccc2ccccc2c1CC(=O)NN
inactive: [9] 102 % of control | [10] 104 % of control | [12] 104 % of control

CCOc1ccccc1NC(=S)NC1CCCCC1
inactive: [7] 97 % of control | [8] 100 % of control

CC(=O)OCC1OC(n2cnc([N+](=O)[O-])c2C#N)C(OC(C)=O)C1OC(C)=O (stereo unspecified)
inactive: [21] 102 % of control | [13] 108 % of control | [14] 102 % of control | [15] 92 % of control

Cc1onc(-c2ccccc2Cl)c1C(=O)NCC(=O)O
inactive: [22] 104 % of control | [23] 100 % of control | [24] 100 % of control

Cc1ccc2[nH]c(=S)n(-c3ccccc3)c(=O)c2c1
inactive: [22] 91 % of control | [23] 91 % of control | [24] 91 % of control

COc1ccc(/C=N/Nc2nnc(N/N=C/c3ccc(OC)c(O)c3)c3ccccc23)cc1O
inactive: dose: 50.0 mg/kg/injection, schedule: Q01DX001 (ip), vehicle: carboxymethylcellulose (CMC) 103 % of control | [16] 103 % of control | [17] 103 % of control | [18] 100 % of control

N#Cc1cc(C(Cl)(Cl)Cl)ccc1C(Cl)(Cl)Cl
inactive: [9] 97 % of control | [10] 95 % of control | [12] 90 % of control

Cc1cccc(NC(=O)Nc2cc(C)on2)c1
inactive: [19] 100 % of control | [7] 91 % of control | dose: 100.0 mg/kg/injection, schedule: Q04DX002 (ip), vehicle: Klucel (hydroxypropylcellulose) (HPC) 98 % of control and 102 % of control | [9] 92 % of control | [20] 95 % of control | [8] 94 % of control and 91 % of control | dose: 200.0 mg/kg/injection, schedule: Q04DX002 (ip), vehicle: Klucel (hydroxypropylcellulose) (HPC) 94 % of control and 98 % of control | [10] 93 % of control | dose: 400.0 mg/kg/injection, schedule: Q01DX001 (ip), vehicle: Klucel (hydroxypropylcellulose) (HPC) 95 % of control | [11] 100 % of control and 91 % of control | dose: 400.0 mg/kg/injection, schedule: Q04DX002 (ip), vehicle: Klucel (hydroxypropylcellulose) (HPC) 98 % of control and 109 % of control | [12] 93 % of control

CCN(CC)CCNc1ccc(N=Nc2cnc3ccccc3c2)c2ccccc12
inactive: dose: 1.12 mg/kg/injection, schedule: Q01DX009 (ip), vehicle: other 98 % of control | dose: 2.25 mg/kg/injection, schedule: Q01DX009 (ip), vehicle: other 92 % of control | dose: 4.5 mg/kg/injection, schedule: Q01DX009 (ip), vehicle: other 93 % of control | dose: 9.0 mg/kg/injection, schedule: Q01DX009 (ip), vehicle: other 97 % of control | dose: 100.0 mg/kg/injection, schedule: Q01DX001 (ip), vehicle: other 91 % of control | dose: 200.0 mg/kg/injection, schedule: Q01DX001 (ip), vehicle: other 91 % of control | dose: 400.0 mg/kg/injection, schedule: Q01DX001 (ip), vehicle: other 97 % of control
